These results are taken from patent publication US5466717A, “Halogenated 4'-methoxyacetophenones as microbicides and preservatives” (Buckman Laboratories Int'l, Inc., priority 1993, dated 1995).

For assay [1], the system named is Desulfovibrio desulfuricans. The assay is described as follows: Effectiveness against sulfate reducing bacterium, Method API Rp 38 (Table 7). It is filed as cell-based. On the set-up: key: +: growth; 0: no growth. Particulars: pH 7.0, duplicates. On the procedure:
The effectiveness of compounds 1 and 2 against Desulfovibrio desulfuricans,a sulfate reducing bacterium, was determined using the method recommended by the American Petroleum Institute (Method API Rp 38). The composition of the sulfate-reducer medium for the bacteriostatic test is as follows: The ingredients are dissolved by gentle heating with constant stirring. […] If necessary, the medium is then filtered through Whatman No. 1 or No. 2 filter paper. Following filtration, the medium is autoclaved at 15 lb steam pressure for […]. After autoclaving, the medium is allowed to cool slightly and the iron salt, Fe(SO4)2 (NH4)2.6H2 O, is added. The pH is then checked and readjusted if necessary. The medium is now cooled to room temperature as rapidly as possible, without agitation. After cooling, the medium is inoculated from the third successive 24-hour transfer of an actively growing culture (a liquid culture which turns black within 24 hours after inoculation) of sulfate-reducing bacteria. Ten milliliters of inoculum are added to each liter of medium. From stock solutions of the chemical to be screened, sufficient amounts of the compounds are added to 1- or 2-oz clear bottles so that the desired concentrations of chemicals are present when the containers are filled. The amount of stock solution added cannot exceed 10 percent of the volume of the test bottle. After addition of the chemical, the bottles are completely filled with the inoculated medium. The bottles are then capped with plastic caps containing cork and aluminum foil or Teflon liners and are incubated at 30°±2° C. All work is done in duplicate with at least three controls for each series. The controls consist of bottles filled with inoculated medium only. Growth of sulfate-reducing bacteria in the bottles is indicated by an intense blackening of the medium, whereas containers having sufficient chemical to inhibit growth will remain clear. Bottles with no sulfate-reducing bacteria growth are observed for a period of 28 days after the controls have blackened. The results were recorded using a +/0 scale where "+" indicates growth and "0" indicates no growth.

For a further assay, the system named is FUNGI. As to the kind of experiment: Long term control of fungal growth on a paint film, ASTM D3456 (Table 8). Particulars: latex paint on Southern yellow pine, 5 years and 5 months. On the procedure: (§1) The effectiveness of halogenated 4'-methoxyacetophenones were evaluated for long term control of fungal and algal growth on a paint film following ASTM Procedure #D3456 (ASTM, 1916 Race St., Philadelphia, Pa. 19103). The test compared the effectiveness of compound 2, 2,2,3'-tribromo-4'-methoxyacetophenone, in latex paint with the commercially available biocides such as Nopcocide-96, and Troysan Polyphase over a period of 5 years and 5 months. The test paint was brush-applied (2 coats) over Southern yellow pine panels. A minimum of 24 hours was allowed between coats. The panels were rated based on the ASTM Procedure #D3274: […]

For a further assay, the system named is ALGAE. As to the kind of experiment: Long term control of algal growth on a paint film, ASTM D3456 (Table 8). Particulars: latex paint on Southern yellow pine, 5 years and 5 months. On the procedure:
as §1

Regarding `COc1ccc(C(=O)CBr)cc1Br` [Compound 1, 2,3'-dibromo-4'-methoxyacetophenone], the “growth of Desulfovibrio desulfuricans” value in assay [1] (1 ppm), in assay [1] (2 ppm) and in assay [1] (8 ppm) was “+” each time.
Turning to `COc1ccc(C(=O)C(Br)Br)cc1Br` [Compound 2, 2,2,3'-tribromo-4'-methoxyacetophenone], the “FUNGI rating in paint film preservation” value with FUNGI (0.25%) and in the assay on FUNGI (0.5%) was 5.0 in each case. The “growth of Desulfovibrio desulfuricans” value in assay [1] (1 ppm), in assay [1] (2 ppm) and in assay [1] (8 ppm) was “+” each time. For the same molecule, the “ALGAE rating in paint film preservation” value in the assay with ALGAE (0.25%) is 6.0; with ALGAE (0.5%), 5.0.
